According to patent publication US20250114367A1, “METHOD OF TREATING HAIR LOSS DISORDERS” (Sun Pharmaceutical Industries, Inc., priority 2023, published 2025):

Columns and labels:
Assay type in all cases: in vivo, human
[1] = test system: subjects with AA; assay: SALT change at week 8, 8 mg BID versus 16 mg once daily
Method: A decrease in SALT score indicates increased hair growth. Decreases in the LS mean SALT scores were initially observed at Week 4. […] At week 8, the LS mean change from baseline SALT score was higher in subjects treated with deuruxolitinib 8 mg BID (8.6%) than in subjects treated with 16 mg once daily (QD) (2.7%).

[2] = test system: adult subjects with moderate to severe AA; assay: Phase III trial: Clinical Global Impression of Severity (CGI-S)
Method: The CGI-S was assessed by the investigator and considered the severity of the subject's alopecia at the time of assessment. The investigator selected 1 of 7 numeric choices representing “Among the most extreme hair loss” to “Normal, no hair loss.” To reduce variability, 1 rater was to perform the CGI-S assessment for the subject. The definitions of the numeric choices is as follows: 1=normal, no hair loss; 2=borderline hair loss; 3=mild hair loss; 4=moderately hair loss; 5=marked hair loss; 6=severe hair loss; 7=among the most extreme hair loss.
(§1) A Phase III trial was conducted to assess the efficacy and safety of CTP-543 in adult subjects with moderate to severe AA. Approximately 440 adult male and female subjects 18 to 65 years of age, inclusive, with moderate to severe AA participated in the study. Subjects with definitive diagnosis of AA, and at least 50% hair loss, as defined by a SALT score ≥50, who met all of the inclusion criteria and none of the exclusion criteria participated in the study.
(§2) The Screening Period lasted up to 28 days prior to initiation of study drug. […] Randomization was stratified by scalp hair loss into 1 of the following 2 categories: 1) partial scalp hair loss (SALT ≥50 and <95), 2) complete or near complete scalp hair loss (SALT ≥95).
(§3) Additional secondary efficacy endpoints included the following: • Relative change in SALT scores from baseline at Weeks 4, 8, 12, 16, 20, and 24. • Percentage of responders (defined as “much improved” or “very much improved”) using the Clinical Global Impression of Improvement (CGI-I) at Weeks 12, 16, 20, and 24. • Percentage of responders (defined as “much improved” or “very much improved”) using the Patient Global Impression of Improvement (PGI-I) at Weeks 12, 16, 20, and 24. • Change from baseline in the Clinical Global Impression of Severity (CGI-S) at Weeks 12, 16, 20, and 24. • Change from baseline in the Patient Global Impression of Severity (PGI-S) at Weeks 12, 16, 20, and 24. • Change from baseline on the Brigham Eyebrow Tool for Alopecia (BETA) score at Weeks 12 and 24. • Change from baseline on the Brigham Eyelash Tool for Alopecia (BELA) score at Weeks 12 and 24. • Percentage of subjects achieving at least a 75% relative reduction in SALT score from baseline at Weeks 12 and 24. • Percentage of subjects achieving at least a 90% relative reduction in SALT score from baseline at Weeks 12 and 24. • Percentage of responders (defined as “satisfied” or “very satisfied”) on the SPRO scale at Weeks 12, 16, and 20. • Change from baseline in the SPRO scale at Weeks 12, 16, 20, and 24. • Percentage of subjects achieving a ≥2-point change from baseline in the SPRO scale at Weeks 12, 16, 20, and 24. • Change from baseline on the individual items of the Hair Quality Patient Reported Outcome (QPRO) scale at Weeks 12, 16, 20, and 24. • Change from baseline in the depression scale of the Hospital Anxiety and Depression Scale (HADS) at Week 24. • Change from baseline in the anxiety scale of the HADS at Week 24. • Percentage of subjects achieving an absolute SALT score of ≤20 at Week 4. • Percentage of subjects achieving an absolute SALT score of ≤10 at Week 24
A decrease in CGI-I score indicates improvement (impression is decreased severity). Similar to other endpoints, decreases favoring the active group over placebo were observed beginning at Week 12 and continuing through Week 24, and the magnitude of the differences increased at each subsequent time point. […] Detailed data for each time point are described below.

[3] = test system: adult subjects with moderate to severe AA; assay: Phase III trial: Hair Quality Patient Reported Outcome (QPRO); details: Weeks 12, 16, 20, and 24
Method: as §1, §2, §3
The individual items of satisfaction with thickness of hair coverage, satisfaction with evenness of hair coverage, satisfaction with eyebrows, and satisfaction with eyelashes are rated on a scale of 1 to 5. A decrease from baseline in the QPRO score represents improvement. For each item and time point, treatment group differences favored CTP-543 over placebo.

[4] = test system: adult subjects with moderate to severe AA; assay: Phase III trial: Patient Global Impression of Severity (PGI-S)
Method: The PGI-S was assessed by the subject and considered the severity of his/her alopecia areata at the time of assessment. The subject selected 1 of 7 numeric choices representing “Among the most extreme hair loss” to “Normal, no hair loss.” The definitions of the numeric choices is as follows: 1=normal, no hair loss; 2=borderline hair loss; 3=mild hair loss; 4=moderately hair loss; 5=marked hair loss; 6=severe hair loss; 7=among the most extreme hair loss.
as §1, §2, §3
A decrease from baseline indicates improvement (impression is decreased severity). The LS mean treatment group difference was in favor of the CTP-543 groups over the placebo group at all timepoints evaluated. […] Detailed data for each time point are described below.

SMILES: [2H]C1([2H])C([C@@H](CC#N)n2cc(-c3ncnc4[nH]ccc34)cn2)C([2H])([2H])C([2H])([2H])C1([2H])[2H] [CTP-543, (R)-3-(4-(7H-pyrrolo[2,3-d]pyrimidin-4-yl)-1H-pyrazol-1-yl)-3-(cyclopentyl-2,2,3,3,4,4,5,5-d8) propanenitrile]
- LS mean change from baseline SALT score ([1]; 8 mg BID): 8.6%
- LS mean change from baseline SALT score ([1]; 16 mg once daily (QD)): 2.7%
- CGI-S, LS mean change from baseline ([2]; Week 12, 8 mg BID): −1.3
- CGI-S, LS mean change from baseline ([2]; Week 12, 12 mg BID): −1.4
- CGI-S, LS mean change from baseline ([2]; Week 16, 12 mg BID): −1.8
- CGI-S, LS mean change from baseline ([2]; Week 20, 8 mg BID): −1.8
- CGI-S, LS mean change from baseline ([2]; Week 20, 12 mg BID): −2.1
- CGI-S, LS mean change from baseline ([2]; Week 24, 8 mg BID): −2.1
- CGI-S, LS mean change from baseline ([2]; Week 24, 12 mg BID): −2.4
- QPRO satisfaction with evenness of hair coverage, treatment group difference from placebo ([3]; 8 mg BID): −1.3 to −0.9
- QPRO satisfaction with eyebrows, treatment group difference from placebo ([3]; 8 mg BID): −1.2 to −1.0
- QPRO satisfaction with eyelashes, treatment group difference from placebo ([3]; 8 mg BID): −1.2 to −0.9
- QPRO satisfaction with thickness of hair coverage, treatment group difference from placebo ([3]; 8 mg BID): −1.3 to −1.0
- QPRO satisfaction with evenness of hair coverage, treatment group difference from placebo ([3]; 12 mg BID): −1.5 to −1.0
- QPRO satisfaction with eyebrows, treatment group difference from placebo ([3]; 12 mg BID): −1.5 to −1.1
- QPRO satisfaction with eyelashes, treatment group difference from placebo ([3]; 12 mg BID): −1.4 to −0.9
- QPRO satisfaction with thickness of hair coverage, treatment group difference from placebo ([3]; 12 mg BID): −1.6 to −1.1
- PGI-S, LS mean change from baseline ([4]; Week 12, 8 mg BID): −1.6
- PGI-S, LS mean change from baseline ([4]; Week 12, 12 mg BID): −1.8
- PGI-S, LS mean change from baseline ([4]; Week 16, 12 mg BID): −2.0
- PGI-S, LS mean change from baseline ([4]; Week 20, 8 mg BID): −2.0
- PGI-S, LS mean change from baseline ([4]; Week 20, 12 mg BID): −2.2
- PGI-S, LS mean change from baseline ([4]; Week 24, 8 mg BID): −2.2
- PGI-S, LS mean change from baseline ([4]; Week 24, 12 mg BID): −2.5
